Measured values as given in the supplement of paper PMC10307832.

Assays:
Assay in all cases: relative viability (nuclei count vs DMSO), 5 days (fraction); higher = more cells survive
AZD8055 + Vorinostat = compound: COc1ccc(-c2ccc3c(N4CCOC[C@@H]4C)nc(N4CCOC[C@@H]4C)nc3n2)cc1CO [AZD8055] + O=C(CCCCCCC(=O)Nc1ccccc1)NO [Vorinostat] (partner 1 µM)
Summary of the method: (§1)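 Cells from lung cancer lines were seeded into 1536-well plates and, one day later, dosed by pin tool. Treatments were either a single drug or a fixed dose of an anchor drug with five library-drug doses (not always all listed) in √10 steps. After 5 days, nuclei were stained in a one-step fixation (final 0.05% Triton X-100, 1% formaldehyde, 1 ug/ml Hoechst) and counted on 4× images, and relative viability is the treated-to-vehicle nuclei ratio, as the median of duplicate plates.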

AZD8055 + Pemetrexed = compound: COc1ccc(-c2ccc3c(N4CCOC[C@@H]4C)nc(N4CCOC[C@@H]4C)nc3n2)cc1CO [AZD8055] + Nc1nc2[nH]cc(CCc3ccc(C(=O)N[C@@H](CCC(=O)O)C(=O)O)cc3)c2c(=O)[nH]1 [Pemetrexed] (partner 0.2 µM)
Summary of the method: as §1

AZD8055 + Dasatinib = compound: COc1ccc(-c2ccc3c(N4CCOC[C@@H]4C)nc(N4CCOC[C@@H]4C)nc3n2)cc1CO [AZD8055] + Cc1nc(Nc2ncc(C(=O)Nc3c(C)cccc3Cl)s2)cc(N2CCN(CCO)CC2)n1 [Dasatinib] (partner 0.075 µM)
Summary of the method: as §1

AZD8055 + Palbociclib = compound: COc1ccc(-c2ccc3c(N4CCOC[C@@H]4C)nc(N4CCOC[C@@H]4C)nc3n2)cc1CO [AZD8055] + CC(=O)c1c(C)c2cnc(Nc3ccc(N4CCNCC4)cn3)nc2n(C2CCCC2)c1=O [Palbociclib] (partner 0.5 µM)
Summary of the method: as §1

Cell Line | relative viability (AZD8055 + Vorinostat; first compound 0.01 µM) | relative viability (AZD8055 + Vorinostat; first compound 0.03162 µM) | relative viability (AZD8055 + Vorinostat; first compound 0.1 µM) | relative viability (AZD8055 + Vorinostat; first compound 0.3162 µM) | relative viability (AZD8055 + Vorinostat; first compound 1 µM) | relative viability (AZD8055 + Pemetrexed; first compound 0.01 µM) | relative viability (AZD8055 + Pemetrexed; first compound 0.03162 µM) | relative viability (AZD8055 + Pemetrexed; first compound 0.1 µM) | relative viability (AZD8055 + Pemetrexed; first compound 0.3162 µM) | relative viability (AZD8055 + Pemetrexed; first compound 1 µM) | relative viability (AZD8055 + Dasatinib; first compound 0.01 µM) | relative viability (AZD8055 + Dasatinib; first compound 0.03162 µM) | relative viability (AZD8055 + Dasatinib; first compound 0.1 µM) | relative viability (AZD8055 + Dasatinib; first compound 0.3162 µM) | relative viability (AZD8055 + Dasatinib; first compound 1 µM) | relative viability (AZD8055 + Palbociclib; first compound 0.01 µM) | relative viability (AZD8055 + Palbociclib; first compound 0.03162 µM) | relative viability (AZD8055 + Palbociclib; first compound 0.1 µM) | relative viability (AZD8055 + Palbociclib; first compound 0.3162 µM) | relative viability (AZD8055 + Palbociclib; first compound 1 µM)
NCI-H1793 | 0.567 | 0.387 | 0.271 | 0.188 | 0.224 | 0.721 | 0.376 | 0.268 | 0.184 | 0.225 | 0.356 | 0.178 | 0.192 | 0.148 | 0.11 | 0.216 | 0.218 | 0.163 | 0.22 | 0.211
NCI-H1915 | 0.486 | 0.36 | 0.419 | 0.284 | 0.246 | 0.52 | 0.5 | 0.507 | 0.419 | 0.372 | 0.27 | 0.297 | 0.281 | 0.177 | 0.174 | 0.491 | 0.44 | 0.425 | 0.282 | 0.203
NCI-H1944 | 0.518 | 0.431 | 0.422 | 0.223 | 0.207 | 0.57 | 0.568 | 0.454 | 0.286 | 0.294 | 0.187 | 0.174 | 0.185 | 0.166 | 0.152 | 0.291 | 0.264 | 0.22 | 0.174 | 0.152
NCI-H1975 | 0.749 | 0.623 | 0.448 | 0.282 | 0.263 | 0.311 | 0.301 | 0.264 | 0.206 | 0.167 | 0.34 | 0.265 | 0.129 | 0.132 | 0.135 | 0.712 | 0.388 | 0.252 | 0.151 | 0.161
NCI-H1993 | 0.55 | 0.474 | 0.358 | 0.287 | 0.407 | 0.519 | 0.542 | 0.459 | 0.434 | 0.473 | 0.528 | 0.448 | 0.505 | 0.524 | 0.542 | 0.596 | 0.47 | 0.39 | 0.408 | 0.404
NCI-H2009 | 0.816 | 0.798 | 0.732 | 0.458 | 0.395 | 1.08 | 1.06 | 1.03 | 0.722 | 0.263 | 0.301 | 0.245 | 0.232 | 0.175 | 0.184 | 0.227 | 0.156 | 0.203 | 0.178 | 0.149
NCI-H2023 | 0.65 | 0.405 | 0.335 | 0.14 | 0.115 | 0.229 | 0.205 | 0.16 | 0.0973 | 0.122 | 0.568 | 0.358 | 0.166 | 0.0954 | 0.103 | 0.264 | 0.229 | 0.0912 | 0.086 | 0.113
NCI-H2085 | 0.645 | 0.554 | 0.49 | 0.44 | 0.363 | 0.827 | 0.74 | 0.481 | 0.31 | 0.268 | 0.205 | 0.201 | 0.199 | 0.217 | 0.195 | 0.493 | 0.448 | 0.386 | 0.37 | 0.3
